Like-named read-outs stand apart in the source and are kept apart here.
Tests used:
macrophages (RAW 264.7) [1] = test: cells; format: cell-based, murine; settings: RAW 264.7 infected macrophages, high-content assay, 72 h; for IC50: Mus musculus, RAW264.7, read-out: Macrophage IC50
HepG2 cells [2] = test: cells; format: cell-based, human; settings: 72 h, CellTiter-Glo; for IC50: Homo sapiens, HepG2
[3] = system: intracellular M. tuberculosis; test: microbe, parasite or virus in culture; format: cell-based, Mycobacterium tuberculosis; settings: for IC50 / Intracellular TB IC50: M. tuberculosis in RAW 264.7, high-content assay, 72 h; for IC50: read-out: Intracellular TB IC50; for selectivity index (SI): cytotoxicity IC50 over intracellular M. tuberculosis IC50; for fold difference between extracellular and intracellular IC50: extracellular versus intracellular M. tuberculosis
[4] = system: extracellular M. tuberculosis; test: microbe, parasite or virus in culture; format: cell-based; settings: Mycobacterium tuberculosis
HepG2 cells [5] = system: HepG2 cells; set-up: method as in PMID 35046812; settings: standard culture medium; primary screen hits; cited from earlier work
[6] = system: extracellular M. tuberculosis; set-up: method as in PMID 35046812; settings: standard culture medium; primary screen hits; read-out: Extracellular TB IC50; cited from earlier work
[7] = system: intracellular M. tuberculosis; set-up: method as in PMID 35046812; settings: M. tuberculosis in RAW 264.7, high-content assay; primary screen hits; read-out: Intracellular TB IC50; cited from earlier work
macrophages (RAW 264.7) [8] = system: macrophages (RAW 264.7); set-up: method as in PMID 35046812; settings: RAW 264.7 infected macrophages, high-content assay; primary screen hits; read-out: Macrophage IC50; cited from earlier work
[9] = system: extracellular M. tuberculosis; test: microbe, parasite or virus in culture; format: cell-based, Mycobacterium tuberculosis; settings: for IC50: Mycobacterium tuberculosis, 168 h, read-out: Cholesterol IC50; for Fold-change: glucose IC50 versus cholesterol IC50
[10] = system: replicating M. tuberculosis; test: Kill kinetics against replicating M. tuberculosis; format: cell-based, Mycobacterium tuberculosis; settings: up to 100 μM, over 21 days, aerobic culture in 7H9-Tw-OADC
[11] = Mycobacterium tuberculosis, RAW264.7, 72 h
[12] = 120 h, read-out: Extracellular TB IC50
[13] = glucose as carbon source, read-out: Glucose IC50

Row | Compound | IC50 (macrophages (RAW 264.7) [1]) [µM] | IC50 (HepG2 cells [2]) [µM] | IC50 [3, 11] [µM] | IC50 [4, 12] [µM] | further results
1 | S=C(Nc1ccccc1)Nc1ccc(Cl)cc1 [Compound 17] | 42 | 91 | < 20 | 104 | IC50 [3]: 16 µM
2 | COc1ccc(NC(=S)Nc2ccccc2C)cc1 [Compound 12] | > 100 | > 100 | < 20 | > 200 | IC50 [3]: 19 µM
3 | O=C(NC(=S)Nc1ccc2oc(-c3ccccc3)nc2c1)c1ccccc1 [Compound 27] | 80 | > 100 | – | > 200 | selectivity index (SI) [3]: > 200; fold difference between extracellular and intracellular IC50 [3]: > 500 fold
4 | COc1cccc(NC(=O)Nc2ccc(C(F)(F)F)cc2)c1 [Compound 40] | 5.2 | 11 | – | 31 | –
5 | O=C(Nc1cccc(Cl)c1)NC1CCCCC1 [Compound 35] | > 100 | > 100 | 4.5 | 28 | HepG2 IC50 (HepG2 cells [2]): no cytotoxicity
6 | CC(C)c1ccc(NC(=O)Nc2ccccc2)cc1 [Compound 38] | 85 | 55 | > 100 | > 200 | –
7 | CNC(=O)Nc1ccc(Br)cc1 [Compound 31] | > 100 | > 100 | 64 | > 200 | –
8 | N#Cc1ccc(NC(=O)Nc2ccc(Cl)cc2)cc1 [Compound 39] | 3 | 6.5 | – | 11 | –
9 | Cc1cc(C)nc(NC(=N)Nc2ccc(Br)cc2)n1 [Compound 5] | – | – | – | – | IC50 (HepG2 cells [5]): 22 µM; IC50 [6]: 8.2 µM; IC50 [7]: 1300 nM; IC50 (macrophages (RAW 264.7) [8]): 18 µM
10 | COc1ccc(NC(=S)Nc2ccc(C(N)=O)cc2)cc1 [Compound 13] | > 100 | > 100 | > 100 | > 200 | Intracellular TB IC50 [3]: inactive
11 | CCCc1nnc(NC(=S)Nc2ccccc2)s1 [Compound 21] | – | > 100 | – | 14.5 | selectivity index (SI) [3]: > 200
12 | S=C(Nc1ccccc1)NC1CCCCC1 [Compound 9] | > 100 | > 100 | > 100 | 130 | Intracellular TB IC50 [3]: loss of intracellular activity
13 | CCOc1ccc(NC(=S)Nc2ccccc2)cc1 [Compound 1] | – | – | – | – | IC50 (HepG2 cells [5]): > 100 µM; IC50 [6]: > 20 µM; IC50 [7]: 400 nM; IC50 (macrophages (RAW 264.7) [8]): > 100 µM
14 | COc1ccc(NC(=S)Nc2ccccc2C(F)(F)F)cc1OC [Compound 18] | > 100 | > 100 | > 100 | > 200 | Intracellular TB IC50 [3]: inactive
15 | O=C(Nc1ccc(C(F)(F)F)cc1)Nc1cccc(Cl)c1 [Compound 4] | – | – | – | – | IC50 (HepG2 cells [5]): 5.6 µM; IC50 [6]: 15 µM; IC50 [7]: 700 nM; IC50 (macrophages (RAW 264.7) [8]): 1.8 µM
16 | CCOc1ccc(NC(=S)Nc2ccc(C)c(C#N)c2)cc1 [Compound 2] | – | – | – | – | IC50 (HepG2 cells [5]): 64 µM; IC50 [6]: 9.5 µM; IC50 [7]: 300 nM; IC50 (macrophages (RAW 264.7) [8]): 47 µM
17 | FC(F)(F)c1cccc(NC(=S)Nc2cccnc2)c1 [Compound 23] | 30 | 62 | – | 125 | Macrophage IC50 (macrophages (RAW 264.7) [1]): cytotoxicity to macrophages
18 | COc1ccc(NC(=O)Nc2nc3ccccc3s2)cc1 [Compound 30] | 52 | 54 | – | > 200 | –
19 | COc1ccc(C(F)(F)F)cc1NC(=O)Nc1cccc(Cl)c1 [Compound 28] | 3 | 12 | – | 25 | –

Row | Compound | IC50 (macrophages (RAW 264.7) [1]) [µM] | IC50 (HepG2 cells [2]) [µM] | IC50 [3, 11] [µM] | IC50 [4, 12] [µM] | further results
20 | CC(C)(C)c1nnc(NC(=O)Nc2ccc(Cl)cc2)s1 [Compound 34] | > 100 | > 100 | 84 | > 200 | Intracellular TB IC50 [3]: lost activity
21 | COc1cccc(NC(=S)Nc2cccc(C(F)(F)F)c2)c1 [Compound 25] | 17 | 24 | 9.6 | 63 | –
22 | COc1cc(NC(=S)Nc2ccc(C(F)(F)F)cc2)cc(OC)c1 [Compound 37] | 29 | 49 | – | > 200 | –
23 | CC(C)(C)c1nnc(NC(=S)Nc2ccccc2)s1 [Compound 22] | > 100 | > 99 | < 1 | 11 | IC50 [9]: 5.7 µM; Fold-change [9]: 1.9; IC50 [3]: 0.51 µM; selectivity index (SI) [3]: > 200; fold difference between extracellular and intracellular IC50 [3]: > 20 fold; IC50 [4, 13]: 11 µM
24 | COc1ccc(NC(=S)Nc2ccccc2Cl)cc1 [Compound 15] | > 100 | > 100 | < 20 | > 200 | IC50 [3]: 14 µM
25 | COc1ccc2nc(NC(=O)Nc3ccc(Cl)cc3)sc2c1 [Compound 29] | 56 | > 100 | – | > 200 | –
26 | CCOc1ccc(NC(=S)Nc2ccccc2C(=O)OC)cc1 [Compound 11] | 46 | > 100 | – | > 200 | –
27 | Cc1nnc(NC(=O)Nc2ccccc2)s1 [Compound 36] | > 100 | > 100 | > 100 | > 200 | –
28 | COc1ccc(NC(=S)Nc2ccc(F)cc2)cc1 [Compound 20] | > 100 | > 100 | 9.2 | 91 | –
29 | CCOc1ccc(NC(=S)Nc2ccc(OC)cc2)cc1 [Compound 14] | > 100 | > 100 | – | 7.2 | IC50 [9]: 15 µM; Fold-change [9]: 0.5; selectivity index (SI) [3]: > 588; fold difference between extracellular and intracellular IC50 [3]: > 40 fold; culture viability (CFU) in kill kinetics [10]: small decrease in viable bacteria at day 21 at the highest concentration; IC50 [4, 13]: 7.2 µM
30 | FC(F)(F)c1cccc(NC(=S)NCCc2ccc(Cl)cc2)c1 [Compound 26] | 9.3 | 23 | – | 30 | –
31 | CNC(=S)Nc1ccccc1 [Compound 10] | > 100 | > 100 | > 100 | > 200 | –
32 | Fc1cccc(NC(=S)Nc2ccccc2C(F)(F)F)c1 [Compound 7] | 53 | 86 | > 100 | > 200 | –
33 | COc1ccc(NC(=S)Nc2ccc(Br)cc2)cc1 [Compound 24] | 72 | > 100 | 2.1 | 16 | fold increase in potency ([3]; intracellular IC50, bromine replacing fluorine): 5 fold
34 | O=C(Nc1ccccc1)Nc1ccc(Cl)cc1 [Compound 33] | > 100 | > 100 | > 100 | > 200 | –
35 | O=C(Nc1ccc(Cl)cc1)Nc1ccc(Nc2ccccc2)cc1 [Compound 3] | – | – | – | – | IC50 (HepG2 cells [5]): > 100 µM; IC50 [6]: > 20 µM; IC50 (macrophages (RAW 264.7) [8]): 68 µM
36 | CCOc1ccc(NC(=S)NC)cc1 [Compound 8] | > 100 | > 100 | < 20 | 80 | IC50 [3]: 10 µM
37 | CCOc1ccc2nc(NC(=S)Nc3ccccc3)sc2c1 [Compound 16] | 28 | 73 | < 1 | 26 | IC50 [9]: 6.6 µM; Fold-change [9]: 3.9; IC50 [3]: 0.75 µM; IC50 [4, 13]: 26 µM

From paper PMC9241686 (Microbiology Spectrum, 2022)
